Results published in publication PMC8605905 (Oxidative Medicine and Cellular Longevity, 2021).

Legend:
[1] = in vivo, po; cited from earlier work
CRE-GFP 293 cells [2] = assay: CRE-GFP 293 reporter cell assay (flow cytometry); assay type: cell-based, Human; conditions: 0.5–2 μM for 5 h
Excerpt: Using the pCRE-MetLuc2-Reporter plasmid (Clontech, Mountain View, CA, USA) as a template, the DNA fragment containing the cAMP response element (CRE) motifs and TATA-like promoter (PTAL) flanked by MluI and AgeI restriction sites was amplified by PCR using sense ([…], MluI site underlined) and antisense ([…], AgeI site underlined) primers. The amplified CRE-PTAL promoter fragment was cloned into pGEM-T Easy (Promega, Madison, WI, USA) and sequenced. The CRE-PTAL-containing MluI/AgeI fragment and GFP-containing AgeI/NotI fragment (from pEGFP-N1; Clontech) were subcloned into MluI- and NotI-digested pcDNA5/FRT/TO (Novagen, Madison, WI, USA). The resulting construct with CRE-PTAL-driving GFP was used to establish 293 GFP reporter cells by targeting insertion into Flp-In-293 cells according to the supplier's instructions (Invitrogen). The cells were grown in a medium containing 5 μg/ml blasticidin and 100 μg/ml hygromycin.
(§1) On day 1, CRE-GFP 293 cells were seeded into 48-well plates (5 × 10^4/well). After 24 h, cells were treated with Ca^2+ ionophore (2 μM) (Sigma-Aldrich) for 0–24 h. Cell viability was measured using 3,(4,5-dimethylthiazol-2-yl)-2,5-diphenyltetrazolium bromide (MTT) assay (Sigma-Aldrich). The absorbance of the insoluble purple formazan dye was quantified at 570 nm on a μQuant microplate spectrophotometer (Bio-Tek). In addition, the cells were treated with the Ca^2+ ionophore A23187 (0.5–10 μM) (Sigma-Aldrich) for 5 h, followed by analysis of GFP fluorescence by flow cytometry (Becton–Dickinson, Franklin Lakes, NJ, USA) with excitation/emission wavelengths at 488/507 nm. To monitor CREB activation, cells were treated with forskolin or coumarin-chalcone derivatives (5–10 μM) in the presence or absence of Ca^2+ ionophore (2 μM) for 5 h, and GFP fluorescence was analysed.
To monitor the cAMP-mediated signal transduction pathway, CRE-GFP 293 cells in 6-well plates (1 × 10^6/well) were pretreated with kinase inhibitor H-89 (LC Laboratories, Woburn, MA, USA), KN-62 (Cayman Chemical, Ann Arbor, MI, USA), U0126 (LC Laboratories), or wortmannin (LC Laboratories) (10 μM) for 4 h before forskolin or LM-021 (10 μM) addition for 5 h. GFP fluorescence/protein and total/phosphorylated PKA, CaMKII, ERK, PI3K, and CREB levels were examined. In addition, Aβ-GFP or ∆K280 tauRD-DsRed SH-SY5Y cells were treated with retinoic acid (10 μM) on day 1, followed by the addition of LM-021 (5 or 10 μM) and doxycycline (5 or 2 μg/ml) on day 2, as described. Kinase inhibitors (10 μM) were added on day 6. On day 8, the cells were collected for protein expression analysis of BDNF, BCL2 (BCL2 apoptosis regulator), and BAX (BCL2 associated X, apoptosis regulator), and total/phosphorylated PKA, CaMKII, ERK, PI3K, and CREB. Also, cells were stained with DAPI and assessed for neurite outgrowth as described above.

CRE-GFP 293 cells [3] = assay: MTT cell viability of CRE-GFP 293 cells; assay type: cell-based, Human; conditions: 2 μM for 3–6 h
Procedure: as §1

Compound	Share of orally administered dose that enters the brain [1]	CRE-motif-driven GFP expression (CRE-GFP 293 cells [2])	Cell viability (MTT) (CRE-GFP 293 cells [3])
N[C@@H](Cc1ccc(O)c(O)c1)C(=O)O [levodopa]	about 1%	–	–
CNc1ccc2oc(C[C@H]3O[C@@]4(CC[C@H]3C)O[C@H]([C@H](C)C(=O)c3ccc[nH]3)[C@H](C)C[C@H]4C)nc2c1C(=O)O [Ca^2+ ionophore]	–	stimulated	No significant cell death
